# Reference: patent publication US10952433B2, “Solutions for enhancing the effectiveness of insecticides and fungicides on living plants and related methods” (priority 2015, dated 2021)
# Read-outs that look alike come from different tables or passages of the source.
# What was measured:
# [1] = tested on: lepidopteran larvae: cabbage loopers (Trichoplusia ni) and beet armyworms (Spodoptera exigua); type: in vivo; conditions: leaf discs
# Excerpt: A second series of tests involved romaine lettuce discs approximately ⅝ inch in diameter. (L. sativa). They were dipped in the treatment solution one second per disc. This test involved the 5/5 configuration, i.e., 5 treated and 5 untreated. The infestation involved […] lepidopteran larvae at the 3rd to 4th instar development per container: four cabbage loopers (Trichoplusia ni), and four beet armyworms (Spodoptera exigua) were employed. The test containers were placed in a dark humidity cabinet at 15° C. and 80% relative humidity. Visual evaluations of the average percent damage were taken at 24, 48 and 72 hours after the initiation of infestation. Damage was evaluated in 5% increments based on total disc area.
# In the tests reported in Table 8 pages 29-32), romaine lettuce leaf discs ⅝″ in diameter (L. sativa) were dipped in the treatment solution for about one second per disc. Infestation was provided by eight lepidopteran larvae at the 3rd to 4th instar development per container. Four cabbage loopers (Trichoplusia ni) and four beet armyworms (Spodoptera exigua) were employed in infestation. The containers were placed in a dark humidity cabinet at 15° C. and 80% relative humidity. Visual observations of the average percent damage was taken at 24, 48 and 72 hours after infestation. Damage evaluation was by 5% increments over the total disc area.
# In the tests results provided in Table 8, the identity and concentrations of the insecticide was identical to the tests results reported in Table 7. The concentration of 200:1 was employed for the no amino oxide, no buffer and buffered amine oxide system. This series of tests, however, reported how the percent damage changed with time at the respective 24, 48 and 72 hour intervals.
# [2] = tested on: lepidopteran larvae: cabbage loopers (Trichoplusia ni) and beet armyworms (Spodoptera exigua); type: in vivo; conditions: plants
# Description: In a first group of tests, the results of which are shown in Table 7 (pages 22-24), romaine lettuce plants two to three inches in height were exposed to 10 milliliters of solution applied to each plant using a low volume trigger spray. With respect to containers 0-7, ten plants were employed per container, nine were treated and one was an internal control. In containers M-H, ten plants per container were used, five were treated and 5 were internal controls. Each container was infested with 30 lepidopteran larvae between the 5th and 6th instar development. Fifteen cabbage loopers (Trichoplusia ni) and 15 beet armyworms (Spodoptera exigua) were used to infest the romaine lettuce plants. Visual evaluations for the average percentage total surface area damage were taken 24 hours after infestation. Percentage damage was evaluated by 5% increments for total damage across all plant leaves.
# As indicated in the first column of Table 7, in some tests, no insecticide was employed and there were two controls; a no water control and a no dye control. A wide variety of insecticides selected from the following group were tested: Chlorantranilopril, Acephate, Methoxyfenozide, Spinosad, Permethrin, and Indoxacarb. The product concentration is shown in PPM in column 2. Column 3 is divided into two subunits, the first being CO3 and the second, PO4. In all instances in columns 3, 4 and 5 and their sub-columns, the concentrations used were 200:1. The fourth column employed amine oxide, but no buffer. […] Two sub-columns each are represented for CO3 and PO4. The final column is a reading of the Percent Lepidopteran Damage to the romaine lettuce plants after 24 hours.
# In addition to testing the buffered amine system of the present invention with the two amine oxides identified as CO3 and PO4 and their use with 12 carbon length and a mixture of 12 and 18 designated 1218 for comparative data purposes various differences were created in the testing. Some of the tests were performed with (a) no insecticide along with (b) no amine oxide for CO3 and PO4 and (c) with no buffer, but with amine oxide. Also, tests were run using no insecticide and no water control with no foliar application being made. Tests with no insecticide and no dye control employed foliar application of water only. The tests were conducted with all of the testing on the buffer alone, the amine oxide alone and the buffered amine oxide system of the present invention in the concentration of 200:1.
# [3] = insecticide + CO3 buffer 200:1, no amine oxide, PPM: Chlorantranilopril 60, Acephate 70, Methoxyfenozide 100, Spinosad 30, Permethrin 10, Indoxacarb 50
# [4] = insecticide + PO4 buffer 200:1, no amine oxide, PPM: Chlorantranilopril 60, Acephate 70, Methoxyfenozide 100, Spinosad 30, Permethrin 10, Indoxacarb 50
# [5] = insecticide + amine oxide 12, no buffer, 200:1, PPM: Chlorantranilopril 60, Acephate 70, Methoxyfenozide 100, Spinosad 30, Permethrin 10, Indoxacarb 50
# [6] = insecticide + amine oxide 1218, no buffer, 200:1, PPM: Chlorantranilopril 60, Acephate 70, Methoxyfenozide 100, Spinosad 30, Permethrin 10, Indoxacarb 50
# [7] = insecticide + buffered amine oxide system CO3, 12, 200:1, PPM: Chlorantranilopril 60, Acephate 70, Methoxyfenozide 100, Spinosad 30, Permethrin 10, Indoxacarb 50
# [8] = insecticide + buffered amine oxide system CO3, 1218, 200:1, PPM: Chlorantranilopril 60, Acephate 70, Methoxyfenozide 100, Spinosad 30, Permethrin 10, Indoxacarb 50
# [9] = insecticide + buffered amine oxide system PO4, 12, 200:1, PPM: Chlorantranilopril 60, Acephate 70, Methoxyfenozide 100, Spinosad 30, Permethrin 10, Indoxacarb 50
# [10] = insecticide + buffered amine oxide system PO4, 1218, 200:1, PPM: Chlorantranilopril 60, Acephate 70, Methoxyfenozide 100, Spinosad 30, Permethrin 10, Indoxacarb 50
# [11] = insecticide alone, highest, PPM: Chlorantranilopril 120, Acephate 140, Methoxyfenozide 200, Spinosad 60, Permethrin 20, Indoxacarb 100
# [12] = insecticide alone, increased, PPM: Chlorantranilopril 90, Acephate 105, Methoxyfenozide 150, Spinosad 45, Permethrin 15, Indoxacarb 75
# [13] = insecticide alone, PPM: Chlorantranilopril 60, Acephate 70, Methoxyfenozide 100, Spinosad 30, Permethrin 10, Indoxacarb 50
structure (smiles),measurement,setting,value
COC(=O)N(C(=O)N1CO[C@@]2(C(=O)OC)Cc3cc(Cl)ccc3C2=N1)c1ccc(OC(F)(F)F)cc1 [Indoxacarb],Percent Lepidopteran Damage to Romaine Lettuce 24 hr,[1]; [3],21.5%
same,Percent Lepidopteran Damage to Romaine Lettuce 24 hr,[1]; [4],22.5%
same,Percent Lepidopteran Damage to Romaine Lettuce 24 hr,[1]; [5],45.5%
same,Percent Lepidopteran Damage to Romaine Lettuce 24 hr,[1]; [6],44.5%
same,Percent Lepidopteran Damage to Romaine Lettuce 24 hr,[1]; [7],33.5%
same,Percent Lepidopteran Damage to Romaine Lettuce 24 hr,[1]; [8],26.5%
same,Percent Lepidopteran Damage to Romaine Lettuce 24 hr,[1]; [9],61.0%
same,Percent Lepidopteran Damage to Romaine Lettuce 24 hr,[1]; [10],19.0%
same,Percent Lepidopteran Damage to Romaine Lettuce 24 hr,[1]; [11],25.0%
same,Percent Lepidopteran Damage to Romaine Lettuce 24 hr,[1]; [12],32.0%
same,Percent Lepidopteran Damage to Romaine Lettuce 24 hr,[1]; [13],19.5%
same,Percent Lepidopteran Damage to Romaine Lettuce 48 hr,[1]; [3],29.0%
same,Percent Lepidopteran Damage to Romaine Lettuce 48 hr,[1]; [4],25.0%
same,Percent Lepidopteran Damage to Romaine Lettuce 48 hr,[1]; [5],55.0%
same,Percent Lepidopteran Damage to Romaine Lettuce 48 hr,[1]; [6],68.0%
same,Percent Lepidopteran Damage to Romaine Lettuce 48 hr,[1]; [7],46.5%
same,Percent Lepidopteran Damage to Romaine Lettuce 48 hr,[1]; [8],50.5%
same,Percent Lepidopteran Damage to Romaine Lettuce 48 hr,[1]; [9],63.5%
same,Percent Lepidopteran Damage to Romaine Lettuce 48 hr,[1]; [10],34.5%
same,Percent Lepidopteran Damage to Romaine Lettuce 48 hr,[1]; [11],35.5%
same,Percent Lepidopteran Damage to Romaine Lettuce 48 hr,[1]; [12],38.0%
same,Percent Lepidopteran Damage to Romaine Lettuce 48 hr,[1]; [13],68.5%
same,Percent Lepidopteran Damage to Romaine Lettuce 72 hr,[1]; [3],37.5%
same,Percent Lepidopteran Damage to Romaine Lettuce 72 hr,[1]; [4],32.5%
same,Percent Lepidopteran Damage to Romaine Lettuce 72 hr,[1]; [5],61.5%
same,Percent Lepidopteran Damage to Romaine Lettuce 72 hr,[1]; [6],71.0%
same,Percent Lepidopteran Damage to Romaine Lettuce 72 hr,[1]; [7],57.5%
same,Percent Lepidopteran Damage to Romaine Lettuce 72 hr,[1]; [8],57.0%
same,Percent Lepidopteran Damage to Romaine Lettuce 72 hr,[1]; [9],71.0%
same,Percent Lepidopteran Damage to Romaine Lettuce 72 hr,[1]; [10],34.5%
same,Percent Lepidopteran Damage to Romaine Lettuce 72 hr,[1]; [11],39.5%
same,Percent Lepidopteran Damage to Romaine Lettuce 72 hr,[1]; [12],72.0%
same,Percent Lepidopteran Damage to Romaine Lettuce 72 hr,[1]; [13],88.0%
same,Percent Lepidopteran Damage to Romaine Lettuce 24 hr,[2]; [3],50.5%
same,Percent Lepidopteran Damage to Romaine Lettuce 24 hr,[2]; [4],25.5%
same,Percent Lepidopteran Damage to Romaine Lettuce 24 hr,[2]; [5],26.5%
same,Percent Lepidopteran Damage to Romaine Lettuce 24 hr,[2]; [6],25.5%
same,Percent Lepidopteran Damage to Romaine Lettuce 24 hr,[2]; [7],7.0%
same,Percent Lepidopteran Damage to Romaine Lettuce 24 hr,[2]; [8],7.0%
same,Percent Lepidopteran Damage to Romaine Lettuce 24 hr,[2]; [9],7.5%
same,Percent Lepidopteran Damage to Romaine Lettuce 24 hr,[2]; [10],8.0%
same,Percent Lepidopteran Damage to Romaine Lettuce 24 hr,[2]; [11],12.0%
same,Percent Lepidopteran Damage to Romaine Lettuce 24 hr,"[2]; insecticide alone, highest, PPM: Chlorantranilopril 120, Acephate 140, Methoxyfenozide 200, Spinosad 60, Permethrin 20, Indoxacarb 100, listed as lndoxacarb",12.5%
same,Percent Lepidopteran Damage to Romaine Lettuce 24 hr,[2]; [12],20.0%
same,Percent Lepidopteran Damage to Romaine Lettuce 24 hr,[2]; [13],47.0%
